Assay [1] has as its system Wild buckwheat. Put plainly: Ex11 PRE 2,4-DC + clomazone, % control 28 DAT, Colby. The format is in vivo, Polygonum convolvulus. An excerpt: The crop tested was Oilseed rape.
Additional treatments included applications of metazachlor (Butisan®, 43.1%) at 750 g ai/ha, napropamide (Devrinol DF®, 50%) at 1260 g, and dimethachlor (Teridox®, 48%) at 1000 g. […] Treatments were applied just after the planting of tall morningglory, wild mustard, common lambsquarters, Italian ryegrass, wild buckwheat, redroot pigweed, common chickweed, corn poppy, and oilseed rape.
Flats were watered and fertilized routinely after treatment application. Each treatment was replicated three times.

Assay [2] concerns Wild buckwheat. Put plainly: Ex34 PRE 2,4-DC + napropamide, % control, Colby. The format is in vivo, Polygonum convolvulus. The settings on record: 28 DAT. From the text: Thereafter flats were watered and fertilized routinely.
The test system of a further assay is Yellow nutsedge. Nature of the assay: Ex32 PRE 2,4-DC + pyroxasulfone + sulfentrazone, % control 28 DAT, Colby. The format is in vivo, Cyperus esculentus. From the text:
Treatments were applied at the time of planting to Italian ryegrass, green foxtail, littleseed canarygrass, wild oat, quackgrass, dandelion, common chickweed, white clover, yellow nutsedge, redroot pigweed, field bindweed, canola, and wheat. […] Flats were watered and fertilized routinely after treatment application.

The next assay has as its system weeds; Wheat and canola. Nature of the assay: Ex44 PRE greenhouse. The format is in vivo. Particulars: weed and rate in the words. From the text:
Redroot pigweed (Amaranth retroflexus, AMARE), Italian ryegrass (Lolium perenne. multiflorum, LOLMU), wild mustard (Sinapis arvensis, SINAR), annual bluegrass (Poa annua POAAN), wild oat (Avena fatua, AVEFA), blackgrass (Alopecurus myosuroides, ALOMY), common lambsquarters (Chenopodium album, […] (Phalaris minor, PHAMI), common chickweed (Stellaria media, STEME), corn poppy (Papaver rhoeas, PAPRH) and silky […]). Crops tested included wheat and canola. […] Treatments were applied before the emergence of redroot pigweed, Italian ryegrass, wild oat, blackgrass, littleseed canarygrass, common chickweed, common lambsquarters, corn poppy, wild mustard, annual bluegrass, silky […], canola, and wheat. […] Flats were watered and fertilized routinely after treatment application.

Assay [3] deals with Wild buckwheat. Put plainly: Ex12 PRE 2,4-DC + dimethenamid-P, % control 28 DAT, Colby. The format is in vivo, Polygonum convolvulus. How it is done:
The tested weeds include: wild buckwheat (Polygonum convolvulus, POLCO), velvetleaf (Abutilon theophrasti, ABUTH), cheat (Bromus secalinus, BROSE), wild oat (Avena fatua, AVEFA), radish (Raphanus sativus, RAPSN), corn poppy (Papaver rhoeas, PAPRH), yellow foxtail (Setaria pumila, SETLU), Italian ryegrass (Lolium perenne ssp. multiflorum, LOLMU). The tested crop was Oilseed rape.
This greenhouse study was conducted to assess the preemergence (PRE) weed control and oilseed rape tolerance with 2,4 DC (CS 36.7%) and dimethenamid-P (Outlook®, 63.9%) tank-mix combinations.
Metazachlor (Butisan, 43.1%) plus dimethenamid-P applied as tank mix at 500 g each was applied as commercial standard. Treatments were replicated 3 times and flats were watered after planting but before the treatment and then lightly watered after treatment application. Thereafter flats were watered and fertilized routinely.

The subject of a further assay is Cheat. Nature of the assay: Ex18 PRE 2,4-DC + clomazone, % control 28 DAT, Colby. The format is in vivo, Bromus secalinus. From the text:
Additional treatments included application of metazachlor (Butisan®, 43.1%) at 750 g ai/ha, napropamide (Devrinol DF®, 50%) at 1260 g ai/ha, and dimethachlor (Teridox®, 48%) at 1000 g ai/ha. […] Treatments were applied just after the seeding of annual bluegrass, cheat, wild oat, quackgrass, field violet, blackgrass, littleseed canarygrass, silky windgrass, yellow foxtail, and goosegrass. […] Flats were watered and fertilized routinely after treatment application. Each treatment was replicated three times.

The subject of another assay is weeds; Wheat and Barley. Put plainly: Ex36 POST greenhouse. The format is in vivo. The settings on record: rate in the words. From the text:
Crops screened were wheat and barley.

The subject of another assay is common chickweed (CC). Nature of the assay: Ex2 PRE greenhouse, % control. The format is in vivo, Stellaria media. The settings on record: 28 DAT, g ai/ha by row: r12-40 2,4-DC 31.25/62.5/125/250/375 (3 rows each) + metazachlor 250/500/750 (cycling), r42-46 2,4-DC 31.25/62.5/125/250/375, r47-49 metazachlor 250/500/750. How it is done: Test compositions containing 2,4 DC Example 1B and metazachlor (Butisan® S, 43.1% active ingredient, BASF) and mixtures of 2-(2,4-dichlorophenyl)methyl-4,4-dimethyl-3-isoxazolidinone and metazachlor, were diluted with water to provide the appropriate test rate concentrations.
The test crops were wheat and canola (Brassica napus), the test weeds were Italian ryegrass (IR) (Lolium perenne. multiflorum), annual bluegrass (AB) (Poa annua), common lambsquarters (CL) (Chenopodium album), littleseed canarygrass (LC) (Phalaris minor), common chickweed (CC) (Stellaria media), and corn poppy (CP) (Papaver rhoeas).
For pre-emergence testing, four disposable fiber flats (6″ by 10″) for each rate of application of each herbicide solution were filled with top soil, to which seeds of each species were planted in furrows made by a template pressed on the top of the soil. The furrows were covered with soil after planting the seed and were watered well before application of the test compounds. […]
The control of weeds was evaluated in each experimental test at 21 days after treatment (DAT) for corn poppy and wheat and 28 DAT for all other species. […]
Percent control was determined by a method similar to the 0 to 100 rating system disclosed in “Research Methods in Weed Science,” 2nd ed., B. Truelove, Ed.; Southern Weed Science Society; Auburn University, Auburn, Ala., 1977.

Regarding `CC1(C)CON(Cc2ccc(Cl)cc2Cl)C1=O` [2,4-DC, 2-(2,4-dichlorophenyl)methyl-4,4-dimethyl-3-isoxazolidinone], the X in the assay on Wild buckwheat [1] (2,4-DC alone 125 g ai/ha) was determined as 10%; in the assay on Wild buckwheat [1] (2,4-DC alone 170 g ai/ha) it was 30%; with Wild buckwheat [1] (2,4-DC alone 210 g ai/ha) it was 22%; in the assay with Wild buckwheat [1] (2,4-DC alone 250 g ai/ha), 27%; in the assay on Wild buckwheat [2] (2,4-DC alone 31 g ai/ha) it was 10%; with Wild buckwheat [2] (2,4-DC alone 63 g ai/ha), 8%. The X in the assay on Wild buckwheat [2] (2,4-DC alone 125 g ai/ha) turned out to be 8%; in the assay with Wild buckwheat [2] (2,4-DC alone 250 g ai/ha), 23%; in the assay on Wild buckwheat [2] (2,4-DC alone 375 g ai/ha) it was 37%; in the assay on Yellow nutsedge (2,4-DC alone 50 g ai/ha), 0%; in the assay on Yellow nutsedge (2,4-DC alone 100 g ai/ha), 0%; in the assay with Yellow nutsedge (2,4-DC alone 200 g ai/ha), 17%. In addition, the X with Wild buckwheat [3] (2,4-DC alone 125 g ai/ha) turned out to be 8%; in the assay on Wild buckwheat [3] (2,4-DC alone 170 g ai/ha), 25%; with Wild buckwheat [3] (2,4-DC alone 210 g ai/ha) it was 28%; in the assay with Wild buckwheat [3] (2,4-DC alone 250 g ai/ha), 38%; in the assay with Cheat (2,4-DC alone 125 g ai/ha), 6%; in the assay on Cheat (2,4-DC alone 170 g ai/ha) it was 11%. Further, the X was found to be 12% in the assay with Cheat (2,4-DC alone 210 g ai/ha) and 25% in the assay with Cheat (2,4-DC alone 250 g ai/ha). Further, the “weed control in words” value in the assay on weeds; Wheat and canola is “alone provided control of corn poppy at ≥100 g, Italian ryegrass at ≥200 g, lambsquarters, 400 g, blackgrass at ≥200 g, silky windgrass at ≥100 g and chickweed at all rates”. The “weed control / crop safety in words” value in the assay with weeds; Wheat and Barley is listed as “alone applied to barley was safe at 50 g ai/ha”. In addition, the “% Control CC” value in the assay on common chickweed (CC) stood at 100%.

(Values after patent US12616203B2, “Use of 3-isoxazolidinones compounds as selective herbicides” (FMC Corporation, priority 2014, dated 2026).)
